This is an account of results in PubChem BioAssay AID328 (DTP/NCI, 2004).

Where “and” joins values, the source holds several entries; their conditions need not be identical. Identical values can stand only once. Inconclusive results and toxic doses are left out.

This test deals with BDF1 mice, P388 leukemia ip, median survival T/C. Description: NCI In Vivo Anticancer Drug Screen. Data for tumor model P388 Leukemia (intraperitoneal) in B6D2F1 (BDF1) mice. The settings on record: endpoint: median survival time, higher = longer survival. In outline:
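Vehicle-dosed animals serve as the reference; survival of compound-dosed, tumour-implanted mice is divided by it.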

The mark [1] stands for this setting: dose: 100.0 mg/kg/injection, schedule: Q04DX003 (ip), vehicle: saline with Tween-80.
The mark [2] stands for this setting: dose: 200.0 mg/kg/injection, schedule: Q04DX003 (ip), vehicle: saline with Tween-80.
Where [3] appears, read: dose: 100.0 mg/kg/injection, schedule: Q04DX003 (ip), vehicle: Klucel (hydroxypropylcellulose) (HPC).
The mark [4] stands for this setting: dose: 200.0 mg/kg/injection, schedule: Q04DX003 (ip), vehicle: Klucel (hydroxypropylcellulose) (HPC).
Where [5] appears, read: dose: 400.0 mg/kg/injection, schedule: Q01DX009 (ip), vehicle: Klucel (hydroxypropylcellulose) (HPC).
Where [6] appears, read: dose: 400.0 mg/kg/injection, schedule: Q04DX003 (ip), vehicle: Klucel (hydroxypropylcellulose) (HPC).
The mark [7] stands for this setting: dose: 400.0 mg/kg/injection, schedule: Q04DX003 (ip), vehicle: saline with Tween-80.
The mark [8] stands for this setting: dose: 100.0 mg/kg/injection, schedule: Q01DX009 (ip), vehicle: Klucel (hydroxypropylcellulose) (HPC).
The mark [9] stands for this setting: dose: 50.0 mg/kg/injection, schedule: Q04DX003 (ip), vehicle: saline with Tween-80.

With `CCCCOP(=S)(N1CC1)N1CC1`, the T/C reads like this: (dose: 1.78 mg/kg/injection, schedule: Q01DX009 (ip), vehicle: saline with Tween-80) 113 % of control; (dose: 2.66 mg/kg/injection, schedule: Q01DX009 (ip), vehicle: saline with Tween-80) 150 % of control; (dose: 2.66 mg/kg/injection, schedule: Q04DX003 (ip), vehicle: saline with Tween-80) 99 % of control; (dose: 4.0 mg/kg/injection, schedule: Q01DX009 (ip), vehicle: saline with Tween-80) 186 % of control; (dose: 4.0 mg/kg/injection, schedule: Q04DX003 (ip), vehicle: saline with Tween-80) 95 % of control; (dose: 6.0 mg/kg/injection, schedule: Q01DX009 (ip), vehicle: saline with Tween-80) 216 % of control. In addition, the T/C was 194 % of control (dose: 6.6 mg/kg/injection, schedule: Q01DX009 (ip), vehicle: saline with Tween-80); 211 % of control (dose: 10.0 mg/kg/injection, schedule: Q01DX009 (ip), vehicle: saline with Tween-80); 212 % of control (dose: 11.0 mg/kg/injection, schedule: Q01DX009 (ip), vehicle: saline with Tween-80); 108 % of control (dose: 15.0 mg/kg/injection, schedule: Q01DX009 (ip), vehicle: saline with Tween-80); 111 % of control (dose: 25.0 mg/kg/injection, schedule: Q01DX009 (ip), vehicle: saline with Tween-80); 95 % of control (dose: 37.5 mg/kg/injection, schedule: Q01DX009 (ip), vehicle: saline with Tween-80). For the same molecule, the T/C (dose: 50.0 mg/kg/injection, schedule: Q01DX009 (ip), vehicle: saline with Tween-80) is 96 % of control; the T/C under setting [1] was 263 % of control; the T/C under setting [2] was 104 % of control.

Consider `O=C1/C(=C/c2cccc([N+](=O)[O-])c2)CCc2ccccc21`, for which the T/C was 100 % of control under setting [3], 100 % of control under setting [4], 104 % of control under setting [5] and 95 % of control under setting [6].

For the molecule `CC1(C)C=C(C(N)=O)C(C)(C)N1O`, the T/C was 100 % of control (dose: 100.0 mg/kg/injection, schedule: Q01DX001 (ip), vehicle: Klucel (hydroxypropylcellulose) (HPC)); 88 % of control (dose: 200.0 mg/kg/injection, schedule: Q01DX001 (ip), vehicle: Klucel (hydroxypropylcellulose) (HPC)); 96 % of control (dose: 400.0 mg/kg/injection, schedule: Q01DX001 (ip), vehicle: Klucel (hydroxypropylcellulose) (HPC)).

For `Cn1ncc2c(N)c(C#N)c(=O)[nH]c21`, the T/C (dose: 100.0 mg/kg/injection, schedule: Q01DX001 (ip), vehicle: saline with Tween-80) was 114 % of control.

Take `COC(=O)C1SCc2ccccc2C1=O` (configuration not stated): the T/C is, setting by setting: under setting [1], 104 % of control; under setting [2], 105 % of control; under setting [7], 105 % of control.

For the molecule `Cc1cnc2c(N)[nH]nc2n1`, the T/C is, setting by setting: (dose: 50.0 mg/kg/injection, schedule: Q04DX003 (ip), vehicle: Klucel (hydroxypropylcellulose) (HPC)) 86 % of control; under setting [3], 109 % of control; under setting [4], 100 % of control.

For the molecule `CCOC(=O)NC1=C(N2CC2)C(=O)C(NC(=O)OCC)=C(N2CC2)C1=O`, the T/C is 199 % of control and 211 % of control and 212 % of control (dose: 0.78 mg/kg/injection, schedule: Q01DX009 (ip), vehicle: saline); 235 % of control and 238 % of control and 212 % of control (dose: 1.56 mg/kg/injection, schedule: Q01DX009 (ip), vehicle: saline); 100 % of control (dose: 3.12 mg/kg/injection, schedule: Q01DX009 (ip), vehicle: saline).

Regarding `C[C@]12CCC(=O)C=C1CC[C@H]1[C@@H]3CCC(=O)O[C@@]3(C)CC(=O)[C@@]12F`, the T/C reads like this: under setting [8], 111 % of control; under setting [3], 90 % of control; (dose: 200.0 mg/kg/injection, schedule: Q01DX009 (ip), vehicle: Klucel (hydroxypropylcellulose) (HPC)) 96 % of control; under setting [4], 109 % of control; under setting [5], 100 % of control; under setting [6], 86 % of control.

On to `C[N+](C)(C)CC[N+](C)(C)C`, for which the T/C (dose: 100.0 mg/kg/injection, schedule: Q01DX009 (ip), vehicle: saline) was 93 % of control; the T/C (dose: 100.0 mg/kg/injection, schedule: Q04DX003 (ip), vehicle: saline) is 93 % of control; the T/C (dose: 200.0 mg/kg/injection, schedule: Q01DX009 (ip), vehicle: saline) is 101 % of control; the T/C (dose: 200.0 mg/kg/injection, schedule: Q04DX003 (ip), vehicle: saline) is 118 % of control; the T/C (dose: 400.0 mg/kg/injection, schedule: Q01DX009 (ip), vehicle: saline) is 93 % of control; the T/C (dose: 400.0 mg/kg/injection, schedule: Q04DX003 (ip), vehicle: saline) was 107 % of control.

For `COc1cc(OC)c(OC)cc1/C=C/c1cc[n+](C)c2ccccc12`, the T/C (dose: 6.25 mg/kg/injection, schedule: Q01DX009 (ip), vehicle: saline) was 111 % of control; the T/C (dose: 12.5 mg/kg/injection, schedule: Q01DX009 (ip), vehicle: saline) was 119 % of control; the T/C (dose: 16.0 mg/kg/injection, schedule: Q01DX009 (ip), vehicle: saline) was 111 % of control; the T/C (dose: 35.0 mg/kg/injection, schedule: Q01DX009 (ip), vehicle: saline) was 119 % of control.

As for `CC1(C)N=C(N)N=C(N)N1c1ccc(CCCCc2ccc(S(=O)(=O)F)cc2)cc1`, the T/C (dose: 12.0 mg/kg/injection, schedule: Q01DX009 (ip), vehicle: saline) was 150 % of control.

On to `CCCC(=O)C(CC)C(O)(C(F)(F)F)C(F)(F)F` (configuration not stated), for which the T/C was 100 % of control under setting [9], 104 % of control under setting [1] and 118 % of control under setting [2].

For the molecule `Clc1nn2cnnc2c2ccccc12`, the T/C is, setting by setting: (dose: 5.0 mg/kg/injection, schedule: Q01DX009 (ip), vehicle: saline) 101 % of control; (dose: 10.0 mg/kg/injection, schedule: Q01DX009 (ip), vehicle: saline) 101 % of control.

As to `CC12C=CC(=O)C=C1CCC1C3CCC(O)(C(=O)CO)C3(C)CC(O)C12F` (configuration not stated), the T/C is, setting by setting: (dose: 25.0 mg/kg/injection, schedule: Q04DX003 (sc), vehicle: steriod suspending solution) 113 % of control; (dose: 50.0 mg/kg/injection, schedule: Q04DX003 (sc), vehicle: steriod suspending solution) 86 % of control; (dose: 56.25 mg/kg/injection, schedule: Q01DX009 (sc), vehicle: steriod suspending solution) 100 % of control; (dose: 100.0 mg/kg/injection, schedule: Q04DX003 (sc), vehicle: steriod suspending solution) 86 % of control; (dose: 112.5 mg/kg/injection, schedule: Q01DX009 (sc), vehicle: steriod suspending solution) 118 % of control; (dose: 150.0 mg/kg/injection, schedule: Q04DX003 (sc), vehicle: steriod suspending solution) 104 % of control. Besides, the T/C (dose: 225.0 mg/kg/injection, schedule: Q01DX009 (sc), vehicle: steriod suspending solution) is 104 % of control and the T/C (dose: 225.0 mg/kg/injection, schedule: Q04DX003 (sc), vehicle: steriod suspending solution) is 90 % of control.

`CN(C)c1ccc(/C=C/c2ccnc3ccccc23)c(O)c1`: the T/C under setting [1] was 113 % of control.

Turning to `NC=NC(CCC(=O)O)C(=O)O` (configuration not stated), the T/C is 90 % of control (dose: 12.5 mg/kg/injection, schedule: Q01DX005 (ip), vehicle: saline); 96 % of control (dose: 25.0 mg/kg/injection, schedule: Q01DX005 (ip), vehicle: saline); 91 % of control (dose: 50.0 mg/kg/injection, schedule: Q01DX005 (ip), vehicle: saline).

For the molecule `CCOC(=O)CCc1nc(C(=O)OCC)c(C)c2nnnn12`, the T/C under setting [1] is 99 % of control, the T/C under setting [2] was 108 % of control and the T/C under setting [7] was 95 % of control.

For `O=[N+]([O-])c1ccc([N+](=O)[O-])c(Cl)c1`, the T/C reads like this: (dose: 12.5 mg/kg/injection, schedule: Q04DX003 (ip), vehicle: saline with Tween-80) 90 % of control; (dose: 25.0 mg/kg/injection, schedule: Q01DX009 (ip), vehicle: Klucel (hydroxypropylcellulose) (HPC)) 100 % of control; (dose: 25.0 mg/kg/injection, schedule: Q04DX003 (ip), vehicle: saline with Tween-80) 109 % of control; (dose: 50.0 mg/kg/injection, schedule: Q01DX009 (ip), vehicle: Klucel (hydroxypropylcellulose) (HPC)) 109 % of control; under setting [9], 109 % of control; under setting [8], 118 % of control. For the same molecule, the T/C under setting [3] was 109 % of control and the T/C (dose: 150.0 mg/kg/injection, schedule: Q01DX009 (ip), vehicle: Klucel (hydroxypropylcellulose) (HPC)) is 118 % of control.
